From patent US12077503B2, “Substituted cyclic amides and their use as herbicides” (FMC CORPORATION, priority 2015, dated 2024)

Experiments:
Format in all cases: in vivo
[1] = system: ryegrass, Italian (Italian ryegrass, Lolium multiflorum); assay: Test A preemergence; settings: Lolium multiflorum, pre-emergence, 240 h, preemergence, 0 to 100 scale where 0 is no effect and 100 is complete control, read-out: Ryegrass, Italian plant response rating; for pest or weed control at 125 g/ha: 125 g ai/ha, visual injury rating, approximately 10 d; for pest or weed control at 500 g/ha: 500 g ai/ha
How it was run: (§1)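 Each rating is a visual injury score from 0 to 100 given about 10 d after treatment, judged against untreated controls kept alongside in the greenhouse. In loam soil–sand blend, seeds got a preemergence directed soil spray, while postemergence plants were 2 to 10 cm tall at spraying.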

[2] = system: Galium (catchweed bedstraw, Galium aparine); assay: Test A postemergence; settings: Galium, post-emergence, 240 h, postemergence; for pest or weed control at 125 g/ha: 125 g ai/ha, visual injury vs untreated controls after approx. 10 d, 0 = no effect, 100 = complete control, read-out: Galium plant response rating (0 to 100 scale); for pest or weed control at 500 g/ha: 500 g ai/ha, 0 to 100 scale, 0 is no effect, 100 is complete control, read-out: Galium plant response rating
How it was run: as §1

Kochia (Kochia scoparia) = assay: Test A postemergence; settings: Bassia scoparia, post-emergence, 240 h, postemergence; for pest or weed control at 125 g/ha: 125 g ai/ha, visual injury vs untreated controls after approx. 10 d, 0 = no effect, 100 = complete control, read-out: Kochia plant response rating (0 to 100 scale); for pest or weed control at 500 g/ha: 500 g ai/ha, 0 to 100 scale, 0 is no effect, 100 is complete control, read-out: Kochia plant response rating
How it was run: as §1

[3] = system: barnyardgrass (Echinochloa crus-galli); assay: Test A postemergence; settings: Echinochloa crus-galli, post-emergence, 240 h, postemergence; for pest or weed control at 125 g/ha: 125 g ai/ha, visual injury vs untreated controls after approx. 10 d, 0 = no effect, 100 = complete control, read-out: Barnyardgrass plant response rating (0 to 100 scale); for pest or weed control at 500 g/ha: 500 g ai/ha, 0 to 100 scale, 0 is no effect, 100 is complete control, read-out: Barnyardgrass plant response rating
How it was run: as §1

[4] = system: blackgrass (Alopecurus myosuroides); assay: Test A postemergence; settings: Alopecurus myosuroides, post-emergence, 240 h, postemergence; for pest or weed control at 125 g/ha: 125 g ai/ha, visual injury vs untreated controls after approx. 10 d, 0 = no effect, 100 = complete control, read-out: Blackgrass plant response rating (0 to 100 scale); for pest or weed control at 500 g/ha: 500 g ai/ha, 0 to 100 scale, 0 is no effect, 100 is complete control, read-out: Blackgrass plant response rating
How it was run: as §1

corn (Zea mays) = assay: Test A postemergence; settings: Zea mays, post-emergence, 240 h, postemergence; for plant injury at 125 g/ha: 125 g ai/ha, visual injury vs untreated controls after approx. 10 d, 0 = no effect, 100 = complete control, read-out: Corn plant response rating (0 to 100 scale); for plant injury at 500 g/ha: 500 g ai/ha, 0 to 100 scale, 0 is no effect, 100 is complete control, read-out: Corn plant response rating
How it was run: as §1

[5] = system: giant foxtail (Setaria faberii); assay: Test A postemergence; settings: Setaria faberi, post-emergence, 240 h, postemergence; for pest or weed control at 125 g/ha: 125 g ai/ha, visual injury vs untreated controls after approx. 10 d, 0 = no effect, 100 = complete control, read-out: Foxtail, Giant plant response rating (0 to 100 scale); for pest or weed control at 500 g/ha: 500 g ai/ha, 0 to 100 scale, 0 is no effect, 100 is complete control, read-out: Foxtail, Giant plant response rating
How it was run: as §1

[6] = system: pigweed (Amaranthus retroflexus); assay: Test A postemergence; settings: Amaranthus retroflexus, post-emergence, 240 h, postemergence; for pest or weed control at 125 g/ha: 125 g ai/ha, visual injury vs untreated controls after approx. 10 d, 0 = no effect, 100 = complete control, read-out: Pigweed plant response rating (0 to 100 scale); for pest or weed control at 500 g/ha: 500 g ai/ha, 0 to 100 scale, 0 is no effect, 100 is complete control, read-out: Pigweed plant response rating
How it was run: as §1

[7] = system: ragweed (common ragweed, Ambrosia elatior); assay: Test A postemergence; settings: Ambrosia artemisiifolia, post-emergence, 240 h, postemergence; for pest or weed control at 125 g/ha: 125 g ai/ha, visual injury vs untreated controls after approx. 10 d, 0 = no effect, 100 = complete control, read-out: Ragweed plant response rating (0 to 100 scale); for pest or weed control at 500 g/ha: 500 g ai/ha, 0 to 100 scale, 0 is no effect, 100 is complete control, read-out: Ragweed plant response rating
How it was run: as §1

[8] = system: ryegrass, Italian (Italian ryegrass, Lolium multiflorum); assay: Test A postemergence; settings: Lolium multiflorum, post-emergence, 240 h, postemergence; for pest or weed control at 125 g/ha: 125 g ai/ha, visual injury vs untreated controls after approx. 10 d, 0 = no effect, 100 = complete control, read-out: Ryegrass, Italian plant response rating (0 to 100 scale); for pest or weed control at 500 g/ha: 500 g ai/ha, 0 to 100 scale, 0 is no effect, 100 is complete control, read-out: Ryegrass, Italian plant response rating
How it was run: as §1

[9] = system: wheat (Triticum aestivum); assay: Test A postemergence; settings: Triticum aestivum, post-emergence, 240 h, postemergence; for plant injury at 125 g/ha: 125 g ai/ha, visual injury vs untreated controls after approx. 10 d, 0 = no effect, 100 = complete control, read-out: Wheat plant response rating (0 to 100 scale)
How it was run: as §1

[10] = system: barnyardgrass (Echinochloa crus-galli); assay: Test B flooded paddy test; settings: Echinochloa crus-galli, 250 g ai/ha, Flood; 0 to 100 scale where 0 is no effect and 100 is complete control; read-out: Barnyardgrass plant response rating
How it was run: (§2)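 Percent control, visually estimated after 13–15 d in the greenhouse on a 0–100 basis, compares treated pots with untreated ones; compound was put into paddy water 3 cm above the soil when plants had two leaves.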

[11] = system: ducksalad (Heteranthera limosa); assay: Test B flooded paddy test; settings: Heteranthera limosa, 250 g ai/ha, Flood; 0 to 100 scale where 0 is no effect and 100 is complete control; read-out: Ducksalad plant response rating
How it was run: as §2

rice (Oryra sativa) = assay: Test B flooded paddy test; settings: Oryza sativa, 250 g ai/ha, Flood; 0 to 100 scale where 0 is no effect and 100 is complete control; read-out: Rice plant response rating
How it was run: as §2

[12] = system: sedge, umbrella (small-flower umbrella sedge, Cyperus difformis); assay: Test B flooded paddy test; settings: Cyperus difformis, 250 g ai/ha, Flood; 0 to 100 scale where 0 is no effect and 100 is complete control; read-out: Sedge, Umbrella plant response rating
How it was run: as §2

Row | Compound | pest or weed control at 125 g/ha [1] [%] | pest or weed control at 500 g/ha [1] [%] | pest or weed control at 125 g/ha [2] [%] | pest or weed control at 500 g/ha [2] [%] | pest or weed control at 125 g/ha (Kochia (Kochia scoparia)) [%] | pest or weed control at 500 g/ha (Kochia (Kochia scoparia)) [%] | pest or weed control at 125 g/ha [3] [%] | pest or weed control at 500 g/ha [3] [%] | pest or weed control at 125 g/ha [4] [%] | pest or weed control at 500 g/ha [4] [%] | plant injury at 125 g/ha (corn (Zea mays)) [%] | plant injury at 500 g/ha (corn (Zea mays)) [%] | pest or weed control at 125 g/ha [5] [%] | pest or weed control at 500 g/ha [5] [%] | pest or weed control at 125 g/ha [6] [%] | pest or weed control at 500 g/ha [6] [%] | pest or weed control at 125 g/ha [7] [%] | pest or weed control at 500 g/ha [7] [%] | pest or weed control at 125 g/ha [8] [%] | pest or weed control at 500 g/ha [8] [%] | further results
1 | CSc1ccccc1NC(=O)[C@H]1C(=O)N(C)C[C@@H]1c1ccc(C#N)cc1 [Compound 1230] | 0 | 0 | 20 | 60 | 30 | 70 | 30 | 70 | 0 | 0 | 0 | 0 | 60 | 80 | 30 | 60 | 0 | 0 | 0 | 0 | plant injury at 125 g/ha [9]: 0%; plant injury at 500 g/ha ([9]; 500 g ai/ha, 0 to 100 scale, 0 is no effect, 100 is complete control, read-out: Wheat plant response rating): 0%; pest or weed control at 250 g/ha [10]: 25%; pest or weed control at 250 g/ha [11]: 70%; pest or weed control at 250 g/ha (rice (Oryra sativa)): 0%; pest or weed control at 250 g/ha [12]: 0%
2 | O=C1NC[C@H](c2ccc(C(F)(F)F)cc2)C1C(=O)Nc1c(F)cccc1CO (stereo partly drawn) [Compound 1243] | 0 | 0 | 0 | 0 | 0 | 0 | 0 | 0 | 0 | 0 | 0 | 0 | 0 | 0 | 0 | 0 | 0 | 0 | 0 | 0 | plant injury at 125 g/ha [9]: 0%; pest or weed control at 250 g/ha [10]: 0%; pest or weed control at 250 g/ha [11]: 0%; pest or weed control at 250 g/ha (rice (Oryra sativa)): 0%; pest or weed control at 250 g/ha [12]: 0%
